# Structures can show the parent of a compound that is named as a salt.
# Biological target: MCL-1 (Homo sapiens (Human), UniProt Q07820, K194A/K197A/R201A)
# Experiment: Protein-protein interaction assay MCL-1/Noxa BH3 peptide (MCL-1 assay, TR-FRET)
# Type: binding
# Conditions: MBP-MCL-1 / Noxa BH3 peptide, median
# In short: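 TR-FRET competition assay read at 665/620 nm, with a Noxa BH3 tracer peptide (1 nM) plus Eu-cryptate anti-MBP and XL665-streptavidin. Compounds (0.1 nM-20 μM, duplicates) were pre-equilibrated 10 min at 22° C with 1 nM MBP-MCL-1 (173-329) in Tris pH 7, NaCl, KF, DTT buffer, then incubated 1 h at 22° C and overnight at 4° C. IC50 came from 4-parameter regression.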
# Sequence of MCL-1 (Q07820 whole entry K194A/K197A/R201A, looked up): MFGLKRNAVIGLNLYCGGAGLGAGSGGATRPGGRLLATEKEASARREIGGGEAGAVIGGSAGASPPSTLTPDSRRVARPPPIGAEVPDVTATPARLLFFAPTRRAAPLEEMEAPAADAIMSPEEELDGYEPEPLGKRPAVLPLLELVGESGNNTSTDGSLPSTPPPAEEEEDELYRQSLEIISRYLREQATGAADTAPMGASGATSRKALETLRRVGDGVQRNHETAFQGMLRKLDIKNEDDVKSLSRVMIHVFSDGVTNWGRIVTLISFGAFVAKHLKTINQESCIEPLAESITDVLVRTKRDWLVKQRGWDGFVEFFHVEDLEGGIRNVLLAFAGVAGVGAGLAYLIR
row,Structure (SMILES),IC50 [nM]
1,"Cc1c2c(nn1C)CN(CCN1CCOCC1)S(=O)(=O)CCCn1c(C(=O)O)c(CCCOc3cccc4ccccc34)c3cccc-2c31 (racemic) [Example 1, (rac)-2,3-Dimethyl-14-[2-(morpholin-4-yl)ethyl]-7-{3-[(naphthalen-1-yl)oxy]propyl}-13,13-dioxo-10,11,12,13,14,15-hexahydro-2H-13λ^6-pyrazolo[3′,4′:4,5][1,2,8]thiadiazacycloundecino-[6,7,8-hi]indole-8-carboxylic acid]",6.2
2,"Cc1c2c(nn1C)CN(C)S(=O)(=O)CCCn1c(C(=O)O)c(CCCOc3cccc4ccccc34)c3ccc(Cl)c-2c31 (racemic) [Example 4, (rac)-4-Chloro-2,3,14-trimethyl-7-{3-[(naphthalen-1-yl)oxy]propyl}-13,13-dioxo-10,11,12,13,14,15-hexahydro-2H-13λ^6-pyrazolo[3′,4′:4,5][1,2,8]thiadiazacycloundecino-[6,7,8-hi]indole-8-carboxylic acid]",1.2
3,"CCc1c2c(nn1C)CN(C)S(=O)(=O)CCCn1c(C(=O)O)c(CCCOc3cccc4cc(F)ccc34)c3ccc(F)c-2c31 (single isomer, unassigned; enantiomer 2) [Example 9, (−)-3-Ethyl-4-fluoro-7-{3-[(6-fluoronaphthalen-1-yl)oxy]propyl}-2,14-dimethyl-13,13-dioxo-10,11,12,13,14,15-hexahydro-2H-13λ^6-pyrazolo[3′,4′:4,5][1,2,8]thiadiazacycloundecino-[6,7,8-hi]indole-8-carboxylic acid (Enantiomer 2)]",34
4,"CCc1c2c(nn1C)CN(C)S(=O)(=O)CCCn1c(C(=O)O)c(CCCOc3cccc4c3CCC4)c3ccc(Cl)c-2c31 [Example 21, (rac)-13-Chloro-1-(3-((2,3-dihydro-1H-inden-4-yl)oxy)propyl)-12-ethyl-8,11-dimethyl-5,6,9,11-tetrahydro-4H,8H-pyrazolo[3′,4′:4,5][1]thia[2,8]diazacycloundecino[6,7,8-hi]indole-2-carboxylic acid 7,7-dioxide]",1.7
5,"CCc1c2c(nn1C)CN(CCCN1CCOCC1)S(=O)(=O)CCCn1c(C(=O)O)c(CCCOc3cccc4ccccc34)c3cccc-2c31 (racemic) [Example 15, (rac)-12-Ethyl-11-methyl-8-(3-morpholinopropyl)-1-(3-(naphthalen-1-yloxy)propyl)-4,5,6,8,9,11-hexahydropyrazolo[3′,4′:4,5][1,2,8]thiadiazacycloundecino[6,7,8-hi]indole-2-carboxylic acid 7,7-dioxide 2,2,2-trifluoroacetic acid salt]",5.6
6,"CCNCC.CCc1c2c(nn1C)C(CCN1CCOCC1)N(C)S(=O)(=O)CCCn1c(C(=O)O)c(CCCOc3cccc4cc(F)ccc34)c3ccc(Cl)c-2c31 (single isomer, unassigned; enantiomer 2) [Example 76, 4-chloro-3-ethyl-7-{3-[(6-fluoronaphthalen-1-yl)oxy]propyl}-2,14-dimethyl-15-[2-(morpholin-4-yl)ethyl]-13,13-dioxo-10,11,12,13,14,15-hexahydro-2H-13lambda^6-pyrazolo[3′,4′:4,5][1,2,8]thiadiazacycloundecino[6,7,8-hi]indole-8-carboxylic acid-N-ethylethanamine Salt (Enantiomer 2)]",0.59
7,"Cc1c2c(nn1C)CN(C)S(=O)(=O)CCCn1c(C(=O)O)c(CCCOc3cccc4ccccc34)c3ccc(Cl)c-2c31 (single isomer, unassigned; enantiomer 1) [Example 5, 4-Chloro-2,3,14-trimethyl-7-{3-[(naphthalen-1-yl)oxy]propyl}-13,13-dioxo-10,11,12,13,14,15-hexahydro-2H-13λ^6-pyrazolo[3′,4′:4,5][1,2,8]thiadiazacycloundecino[6,7,8-hi]indole-8-carboxylic acid-N-ethylethanamine salt (Enantiomer 1)]",0.52
8,"Cc1c2c(nn1C)CN(CCN1CCOCC1)S(=O)(=O)CCCn1c(C(=O)O)c(CCCOc3cccc4ccccc34)c3cccc-2c31 (single isomer, unassigned; enantiomer 2) [Example 3, 2,3-Dimethyl-14-[2-(morpholin-4-yl)ethyl]-7-{3-[(naphthalen-1-yl)oxy]propyl}-13,13-dioxo-10,11,12,13,14,15-hexahydro-2H-13λ^6-pyrazolo[3′,4′:4,5][1,2,8]thiadiazacycloundecino-[6,7,8-hi]indole-8-carboxylic acid-N-ethylethanamine salt (Enantiomer 2)]",270

# Further lines, results first:
row,IC50 [nM],Structure (SMILES)
1,0.94,"CCc1c2c(nn1C)C(CCC1CCOCC1)N(C)S(=O)(=O)CCCn1c(C(=O)O)c(CCCOc3cccc4cc(F)ccc34)c3ccc(Cl)c-2c31 (single isomer, unassigned; enantiomer 1) [Example 61, (+)-4-chloro-3-ethyl-7-{3-[(6-fluoronaphthalen-1-yl)oxy]propyl}-2,14-dimethyl-15-[2-(oxan-4-yl)ethyl]-13,13-dioxo-10,11,12,13,14,15-hexahydro-2H-13lambda^6-pyrazolo[3′,4′:4,5][1,2,8]thiadiazacycloundecino[6,7,8-hi]indole-8-carboxylic acid (Enantiomer 1)]"
2,33,"Cc1c2c(nn1C)C(CCN1CCOCC1)N(C)S(=O)(=O)CCCn1c(C(=O)O)c(CCCOc3cccc4ccccc34)c3cccc-2c31 (single isomer, unassigned; enantiomer 1) [Example 45, 2,3,14-trimethyl-15-[2-(morpholin-4-yl)ethyl]-7-{3-[(naphthalen-1-yl)oxy]propyl}-13,13-dioxo-10,11,12,13,14,15-hexahydro-2H-13lambda^6-pyrazolo[3′,4′:4,5][1,2,8]thiadiazacycloundecino[6,7,8-hi]indole-8-carboxylic acid N-ethylethanamine Salt (Enantiomer 1)]"
3,6.2,"CCc1c2c(nn1C)CN(CCN1CCOCC1)S(=O)(=O)CCCn1c(C(=O)O)c(CCCOc3cccc4cc(F)ccc34)c3ccc(Cl)c-2c31 [Example 77, (rac)-13-chloro-12-ethyl-1-(3-((6-fluoronaphthalen-1-yl)oxy)propyl)-11-methyl-8-(2-morpholinoethyl)-5,6,9,11-tetrahydro-4H,8H-pyrazolo[3′,4′:4,5][1]thia[2,8]diazacycloundecino[6,7,8-hi]indole-2-carboxylic acid 7,7-dioxide]"
4,3,"Cc1c2c(nn1C)C(CCN1CCOCC1)N(C)S(=O)(=O)CCCn1c(C(=O)O)c(CCCOc3cccc4ccccc34)c3cccc-2c31 (racemic) [Example 44, (rac)-2,3,14-trimethyl-15-[2-(rac)-(morpholin-4-yl)ethyl]-7-[3-(1-naphthyloxy)propyl]-11,12,14,15-tetrahydro-2H,10H-pyrazolo[3′,4′:4,5][1,2,8]thiadiazacycloundecino[6,7,8-hi]indole-8-carboxylic acid 13,13-dioxide (Mixture of Stereoisomers)]"
5,2.1,"CCc1c2c(nn1C)CN(CC)S(=O)(=O)CCCn1c(C(=O)O)c(CCCOc3cccc4cc(F)ccc34)c3ccc(Cl)c-2c31 (racemic) [Example 56, (rac)-4-chloro-3,14-diethyl-7-{3-[(6-fluoro-1-naphthyl)oxy]propyl}-2-methyl-11,12,14,15-tetrahydro-2H,10H-pyrazolo[3′,4′:4,5][1,2,8]thiadiazacycloundecino[6,7,8-hi]indole-8-carboxylic acid 13,13-dioxide]"
6,1.5,"CCc1c2c(nn1C)CN(C)S(=O)(=O)CCCn1c(C(=O)O)c(CCCOc3cccc4c3CCC4)c3ccc(F)c-2c31 (racemic) [Example 32, (rac)-1-(3-((2,3-Dihydro-1H-inden-4-yl)oxy)propyl)-12-ethyl-13-fluoro-8,11-dimethyl-5,6,9,11-tetrahydro-4H,8H-pyrazolo[3′,4′:4,5][1]thia[2,8]diazacycloundecino[6,7,8-hi]indole-2-carboxylic acid 7,7-dioxide]"
7,3.3,"CCc1c2c(nn1C)CN(C)S(=O)(=O)CCCn1c(C(=O)O)c(CCCOc3cccc4c3CCCC4)c3ccc(Cl)c-2c31 [Example 23, (rac)-13-Chloro-12-ethyl-8,11-dimethyl-1-(3-((5,6,7,8-tetrahydronaphthalen-1-yl)oxy)propyl)-4,5,6,8,9,11-hexahydropyrazolo[3′,4′:4,5][1,2,8]thiadiazacycloundecino[6,7,8-hi]indole-2-carboxylic acid 7,7-dioxide]"
8,2.4,"CCc1c2c(nn1C)C(CCC1CCOCC1)N(C)S(=O)(=O)CCCn1c(C(=O)O)c(CCCOc3cccc4cc(F)ccc34)c3ccc(Cl)c-2c31 (racemic) [Example 60, (rac)-4-chloro-3-ethyl-7-{3-[(6-fluoro-1-naphthyl)oxy]propyl}-2,14-dimethyl-15-[2-(tetrahydro-2H-pyran-4-yl)ethyl]-11,12,14,15-tetrahydro-2H,10H-pyrazolo[3′,4′:4,5][1,2,8]thiadiazacycloundecino[6,7,8-hi]indole-8-carboxylic acid 13,13-dioxide (Racemate 1)]"
9,3.5,"CCc1c2c(nn1C)CN(C)S(=O)(=O)CCCn1c(C(=O)O)c(CCCOc3ccc(F)c4ccccc34)c3ccc(F)c-2c31 (racemic) [Example 35, (rac)-12-Ethyl-13-fluoro-1-(34(4-fluoronaphthalen-1-yl)oxy)propyl)-8,11-dimethyl-5,6,9,11-tetrahydro-4H,8H-pyrazolo[3′,4′:4,5][1]thia[2,8]diazacycloundecino[6,7,8-hi]indole-2-carboxylic acid 7,7-dioxide]"
10,5.1,"Cc1c2c(nn1C)CN(C)S(=O)(=O)CCCn1c(C(=O)O)c(CCCOc3ccc(F)c4ccccc34)c3ccc(F)c-2c31 [Example 30, (rac)-13-Fluoro-1-(34(4-fluoronaphthalen-1-yl)oxy)propyl)-8,11,12-trimethyl-5,6,9,11-tetrahydro-4H,8H-pyrazolo[3′,4′:4,5][1]thia[2,8]diazacycloundecino[6,7,8-hi]indole-2-carboxylic acid 7,7-dioxide]"

# From patent US11401278B2, “Macrocyclic indole derivatives” (The Broad Institute, Inc., priority 2017, dated 2022)
